{"source": "patent US20100286181A1", "about": "“PYRROLE DERIVATIVES WITH ANTIBACTERIAL ACTIVITY” (ASTRAZENECA AB, priority 2006, published 2010)", "molecular_target": "GyrB ATPase activity (E. coli GyrA, E. coli GyrB) (Escherichia coli, UniProt P0AES6)", "assay": "GyrB ATPase inhibition activity assay (ammonium molybdate/malachite green phosphate detection)", "type": "biochemical", "conditions": "figure quoted may be an average of two or more results", "method": "Compounds may be tested for inhibition of GyrB ATPase activity using an ammonium molybdate/malachite green-based phosphate detection assay (Lanzetta, P. A., L. J. Alvarez, P. S. Reinach, and O. A. Candia, 1979, 100: 95-97). Assays can be performed in multiwell plates in 100 μl reactions containing: 50 mM HEPES buffer pH 7.5, 75 mM ammonium acetate, 5.5 mM magnesium chloride, 0.5 mM ethylenediaminetetraacetic acid, 5% glycerol, 1 mM 1,4-Dithio-DL-threitol, 200 nM bovine serum albumin, 5 μg/ml sheared salmon sperm DNA, 2.5 nM E. coli GyrA, 2.5 nM E. coli GyrB, 250 μM ATP, and compound in dimethylsulfoxide. Reactions can be quenched with 150 μl of ammonium molybdate/malachite green detection reagent containing 1.2 mM malachite green hydrochloride, 8.5 mM ammonium molybdate tetrahydrate, and 1 M hydrochloric acid.\nCompounds of the Examples could be expected to have IC50 values of <200 μg/ml in one or both assays described herein above. For Example the following results were obtained in a GyrB ATPase inhibition activity assay substantially similar to the above wherein the figure quoted may be an average of two or more results", "data": [{"smiles": "COC(=O)c1cnc(N2CC[C@H](NC(=O)c3[nH]c(C)c(Cl)c3Cl)[C@H](n3ccnc3)C2)s1", "note": "(racemic) [Example 38, cis(±)Methyl 2-[4-{[(3,4-dichloro-5-methyl-1H-pyrrol-2-yl)carbonyl]amino}-3-(1H-imidazol-1-yl)piperidin-1-yl]-1,3-thiazole-5-carboxylate]", "values": [{"measurement": "IC50", "value": 90.9, "unit": "nM"}]}, {"smiles": "COC(=O)c1cnc(N2CC[C@H](NC(=O)c3[nH]c(C)c(Cl)c3Cl)[C@H](n3cncn3)C2)s1", "note": "(racemic) [Example 39, cis(±)Methyl 2-[4-{[(3,4-dichloro-5-methyl-1H-pyrrol-2-yl)carbonyl]amino}-3-(1H-1,2,4-triazol-1-yl)piperidin-1-yl]-1,3-thiazole-5-carboxylate]", "values": [{"measurement": "IC50", "value": 33.4, "unit": "nM"}]}, {"smiles": "COC(=O)c1cnc(N2CC[C@H](NC(=O)c3[nH]c(C)c(Cl)c3Cl)[C@H](n3cnc(Cl)n3)C2)s1", "note": "(racemic) [Example 40, cis(±)Methyl 2-(3-(3-chloro-1H-1,2,4-triazol-1-yl)-4-{[(3,4-dichloro-5-methyl-1H-pyrrol-2-yl)carbonyl]amino}piperidin-1-yl)-1,3-thiazole-5-carboxylate]", "values": [{"measurement": "IC50", "value": 51.9, "unit": "nM"}]}, {"smiles": "CCOC(=O)c1cccc2nc(N3CC[C@H](NC(=O)c4[nH]c(C)c(Cl)c4Cl)[C@H](n4ccnc4)C3)sc12", "note": "(racemic) [Example 41, cis(±)Ethyl 2-[4-{[(3,4-dichloro-5-methyl-1H-pyrrol-2-yl)carbonyl]amino}-3-(1H-imidazol-1-yl)piperidin-1-yl]-1,3-benzothiazole-7-carboxy late]", "values": [{"measurement": "IC50", "value": 53.4, "unit": "nM"}]}, {"smiles": "Cc1[nH]c(C(=O)N[C@H]2CCN(c3ncc(C(=O)O)s3)C[C@H]2n2ccnc2)c(Cl)c1Cl", "note": "(racemic) [Example 42, cis(±)2-[4-{[(3,4-Dichloro-5-methyl-1H-pyrrol-2-yl)carbonyl]amino}-3-(1H-imidazol-1-yl)piperidin-1-yl]-1,3-thiazole-5-carboxylic acid]", "values": [{"measurement": "IC50", "value": "< 75.6", "unit": "nM"}]}, {"smiles": "Cc1[nH]c(C(=O)N[C@H]2CCN(c3ncc(C(=O)O)s3)C[C@H]2n2cncn2)c(Cl)c1Cl", "note": "(racemic) [Example 43, cis(±)2-[4-{[(3,4-Dichloro-5-methyl-1H-pyrrol-2-yl)carbonyl]amino}-3-(1H-1,2,4-triazol-1-yl)piperidin-1-yl]-1,3-thiazole-5-carboxylic acid]", "values": [{"measurement": "IC50", "value": "< 9.77", "unit": "nM"}]}, {"smiles": "Cc1[nH]c(C(=O)N[C@H]2CCN(c3nc4cccc(C(=O)O)c4s3)C[C@H]2n2ccnc2)c(Cl)c1Cl", "note": "(racemic) [Example 44, cis(±)2-[4-{[(3,4-Dichloro-5-methyl-1H-pyrrol-2-yl)carbonyl]amino}-3-(1H-imidazol-1-yl)piperidin-1-yl]-1,3-benzothiazole-7-carboxylic acid]", "values": [{"measurement": "IC50", "value": "< 9.77", "unit": "nM"}]}, {"smiles": "Cc1[nH]c(C(=O)N[C@H]2CCN(c3ncc(C(=O)O)s3)C[C@H]2n2cnc(Cl)n2)c(Cl)c1Cl", "note": "(racemic) [Example 45, cis(±)2-(3-(3-Chloro-1H-1,2,4-triazol-1-yl)-4-{[(3,4-dichloro-5-methyl-1H-pyrrol-2-yl)carbonyl]amino}piperidin-1-yl)-1,3-thiazole-5-carboxylic acid]", "values": [{"measurement": "IC50", "value": "< 9.77", "unit": "nM"}]}, {"smiles": "CONC(=O)c1cccc2nc(N3CC[C@H](NC(=O)c4[nH]c(C)c(Cl)c4Cl)[C@H](n4ccnc4)C3)sc12", "note": "(racemic) [Example 46, cis(±)2-[4-{[(3,4-Dichloro-5-methyl-1H-pyrrol-2-yl)carbonyl]amino}-3-(1H-imidazol-1-yl)piperidin-1-yl]-N-methoxy-1,3-benzothiazole-7-carboxamide]", "values": [{"measurement": "IC50", "value": "< 9.77", "unit": "nM"}]}, {"smiles": "Cc1[nH]c(C(=O)N[C@H]2CCN(c3ncc(C(N)=O)s3)C[C@H]2n2ccnc2)c(Cl)c1Cl", "note": "(racemic) [Example 47, cis(±)2-[4-{[(3,4-Dichloro-5-methyl-1H-pyrrol-2-yl)carbonyl]amino}-3-(1H-imidazol-1-yl)piperidin-1-yl]-1,3-thiazole-5-carboxamide]", "values": [{"measurement": "IC50", "value": 25.7, "unit": "nM"}]}, {"smiles": "CCOC(=O)c1sc(N2CC[C@H](NC(=O)c3[nH]c(C)c(Cl)c3Cl)[C@H](n3cncn3)C2)nc1C(=O)N[C@@H](C)COC", "note": "(racemic) [Example 48, cis(±)Ethyl 2-[4-{[(3,4-dichloro-5-methyl-1H-pyrrol-2-yl)carbonyl]amino}-3-(1H-1,2,4-triazol-1-yl)piperidin-1-yl]-4-({[(1S)-2-methoxy-1-methylethyl]amino}carbonyl)-1,3-thiazole-5-carboxylate]", "values": [{"measurement": "IC50", "value": 36.5, "unit": "nM"}]}, {"smiles": "CCOC(=O)c1sc(N2CC[C@H](NC(=O)c3[nH]c(C)c(Cl)c3Cl)[C@H](n3cncn3)C2)nc1C(=O)O", "note": "(racemic) [Example 49, cis(±)2-[4-{[(3,4-Dichloro-5-methyl-1H-pyrrol-2-yl)carbonyl]amino}-3-(1H-1,2,4-triazol-1-yl)piperidin-1-yl]-5-(ethoxycarbonyl)-1,3-thiazole-4-carboxylic acid]", "values": [{"measurement": "IC50", "value": "< 9.77", "unit": "nM"}]}, {"smiles": "COC[C@H](C)NC(=O)c1nc(N2CC[C@H](NC(=O)c3[nH]c(C)c(Cl)c3Cl)[C@H](n3cncn3)C2)sc1C(=O)O", "note": "(racemic) [Example 50, cis(±)2-[4-{[(3,4-Dichloro-5-methyl-1H-pyrrol-2-yl)carbonyl]amino}-3-(1H-1,2,4-triazol-1-yl)piperidin-1-yl]-4-({[(1S)-2-methoxy-1-methylethyl]amino}carbonyl)-1,3-thiazole-5-carboxylic acid]", "values": [{"measurement": "IC50", "value": "< 9.77", "unit": "nM"}]}, {"smiles": "COC(=O)c1cnc(N2CC[C@H](NC(=O)c3[nH]c(C)c(Cl)c3Cl)[C@H](N=[N+]=[N-])C2)s1", "note": "(racemic) [Example 65, cis(±)Methyl 2-(3-azido-4-{[(3,4-dichloro-5-methyl-1H-pyrrol-2-yl)carbonyl]amino}piperidin-1-yl)-1,3-thiazole-5-carboxylate]", "values": [{"measurement": "IC50", "value": "< 9.77", "unit": "nM"}]}, {"smiles": "Cc1[nH]c(C(=O)N[C@H]2CCN(c3ncc(C(=O)O)s3)C[C@H]2N=[N+]=[N-])c(Cl)c1Cl", "note": "(racemic) [Example 66, cis(±)-2-(3-Azido-4-{[(3,4-dichloro-5-methyl-1H-pyrrol-2-yl)carbonyl]amino}piperidin-1-yl)-1,3-thiazole-5-carboxylic acid]", "values": [{"measurement": "IC50", "value": "< 9.77", "unit": "nM"}]}, {"smiles": "Cc1[nH]c(C(=O)N[C@H]2CCN(c3ncc(C(=O)O)s3)C[C@H]2N)c(Cl)c1Cl", "note": "(racemic) [Example 68, cis(±)2-(3-Amino-4-{[(3,4-dichloro-5-methyl-1H-pyrrol-2-yl)carbonyl]amino}piperidin-1-yl)-1,3-thiazole-5-carboxylic acid]", "values": [{"measurement": "IC50", "value": 291, "unit": "nM"}]}, {"smiles": "Cc1[nH]c(C(=O)N[C@H]2CCN(c3ncc(C(=O)O)s3)C[C@H]2n2ccnn2)c(Cl)c1Cl", "note": "(racemic) [Example 119, cis(±)2-[4-{[(3,4-Dichloro-5-methyl-1H-pyrrol-2-yl)carbonyl]amino}-3-(1H-1,2,3-triazol-1-yl)piperidin-1-yl]-1,3-thiazole-5-carboxylic acid]", "values": [{"measurement": "IC50", "value": 12.3, "unit": "nM"}]}, {"smiles": "COC(=O)c1cnc(N2CC[C@H](NC(=O)c3[nH]c(C)c(Cl)c3Cl)[C@H](n3cc(C)nn3)C2)s1", "note": "(racemic) [Example 121, cis(±)Methyl 2-[4-{[(3,4-dichloro-5-methyl-1H-pyrrol-2-yl)carbonyl]amino}-3-(4-methyl-1H-1,2,3-triazol-1-yl)piperidin-1-yl]-1,3-thiazole-5-carboxylate]", "values": [{"measurement": "IC50", "value": 36.9, "unit": "nM"}]}, {"smiles": "Cc1cn([C@@H]2CN(c3ncc(C(=O)O)s3)CC[C@@H]2NC(=O)c2[nH]c(C)c(Cl)c2Cl)nn1", "note": "(racemic) [Example 122, cis(±)2-[4-{[(3,4-Dichloro-5-methyl-1H-pyrrol-2-yl)carbonyl]amino}-3-(4-methyl-1H-1,2,3-triazol-1-yl)piperidin-1-yl]-1,3-thiazole-5-carboxylic acid]", "values": [{"measurement": "IC50", "value": "< 9.77", "unit": "nM"}]}, {"smiles": "COC(=O)c1cnc(N2CC[C@H](NC(=O)c3[nH]c(C)c(Cl)c3Cl)[C@H](n3ccnn3)C2)s1", "note": "(racemic) [Example 126, cis(±)Methyl 2-[4-{[(3,4-dichloro-5-methyl-1H-pyrrol-2-yl)carbonyl]amino}-3-(1H-1,2,3-triazol-1-yl)piperidin-1-yl]-1,3-thiazole-5-carboxylate]", "values": [{"measurement": "IC50", "value": 32.7, "unit": "nM"}]}, {"smiles": "COC(=O)c1sc(N2CCC(NC(=O)c3[nH]c(C)c(Cl)c3Cl)C3(C2)OCCO3)nc1C(C)=O", "note": "(stereo not drawn) [Example 2, Methyl 4-acetyl-2-(10-{[(3,4-dichloro-5-methyl-1H-pyrrol-2-yl)carbonyl]amino}-1,4-dioxa-7-azaspiro[4.5]dec-7-yl)-1,3-thiazole-5-carboxylate]", "values": [{"measurement": "IC50", "value": 487, "unit": "nM"}]}, {"smiles": "CNC(=O)c1nc(N2CCC(NC(=O)c3[nH]c(C)c(Cl)c3Cl)C3(C2)OCCO3)sc1C(=O)OC(C)C", "note": "(stereo not drawn) [Example 3, Isopropyl 2-(10-{[(3,4-dichloro-5-methyl-1H-pyrrol-2-yl)carbonyl]amino}-1,4-dioxa-7-azaspiro[4.5]dec-7-yl)-4-[(methylamino)carbonyl]-1,3-thiazole-5-carboxylate]", "values": [{"measurement": "IC50", "value": 270, "unit": "nM"}]}, {"smiles": "CCOC(=O)c1sc(N2CCC(NC(=O)c3[nH]c(C)c(Cl)c3Cl)C3(C2)OCCO3)nc1C(=O)NCCOC", "note": "(stereo not drawn) [Example 5, Ethyl 2-(10-{[(3,4-dichloro-5-methyl-1H-pyrrol-2-yl)carbonyl]amino}-1,4-dioxa-7-azaspiro[4.5]dec-7-yl)-4-{[(2-methoxyethyl)amino]carbonyl}-1,3-thiazole-5-carboxylate]", "values": [{"measurement": "IC50", "value": 226, "unit": "nM"}]}, {"smiles": "COC(=O)c1cnc(N2CCC(NC(=O)c3[nH]c(C)c(Cl)c3Cl)C3(C2)OCCCO3)s1", "note": "(stereo not drawn) [Example 6, Methyl 2-(11-{[(3,4-dichloro-5-methyl-1H-pyrrol-2-yl)carbonyl]amino}-1,5-dioxa-8-azaspiro[5.5]undec-8-yl)-1,3-thiazole-5-carboxylate]", "values": [{"measurement": "IC50", "value": 79.1, "unit": "nM"}]}]}
